Measurements published in ChEMBL document CHEMBL4024706 (Eur J Med Chem, 2017).

What was measured:
[1] = MRT (0 to t) in Sprague-Dawley rat at 10 mg/kg, po by LC-MS/MS method; type: ADME, organism-based; details: in vivo
[2] = Tmax in Sprague-Dawley rat at 1 mg/kg, iv by LC-MS/MS method; type: ADME, organism-based; details: in vivo
[3] = molecular target: Mitotic checkpoint serine/threonine-protein kinase BUB1 (Homo sapiens) (UniProt O43683); experiment: Inhibition of wild-type human partial length BUB1 (Q724 to K1085 residues) expressed in mammalian expression system assessed as residual activity at 1 uM by Kinomescan method relative to control
[4] = molecular target: Calcium/calmodulin-dependent protein kinase kinase 2 (Homo sapiens) (UniProt Q96RR4); experiment: Inhibition of wild-type human partial length CAMKK2 (D65 to V471 residues) expressed in bacterial expression system assessed as residual activity at 1 uM by Kinomescan method relative to control
[5] = molecular target: Cyclin-dependent kinase-like 2 (Homo sapiens) (UniProt Q92772); experiment: Inhibition of wild-type human partial length CDKL2 (M1 to D327 residues) expressed in bacterial expression system assessed as residual activity at 1 uM by Kinomescan method relative to control
[6] = test system: Epidermal growth factor receptor (Homo sapiens), P00533 [L861Q]; experiment: Inhibition of human partial length EGFR L861Q mutant (R669 to V1011 residues) expressed in bacterial expression system assessed as residual activity at 1 uM by Kinomescan method relative to control
[7] = molecular target: Tyrosine-protein kinase Fer (Homo sapiens) (UniProt P16591); experiment: Inhibition of wild-type human partial length FER (S542 to T822 residues) expressed in bacterial expression system assessed as residual activity at 1 uM by Kinomescan method relative to control
[8] = molecular target: Fibroblast growth factor receptor 4 (Homo sapiens) (UniProt P22455); experiment: Inhibition of wild-type human partial length FGFR4 (G402 to E713 residues) expressed in bacterial expression system assessed as residual activity at 1 uM by Kinomescan method relative to control
[9] = molecular target: Serine/threonine-protein kinase haspin (Homo sapiens) (UniProt Q8TF76); experiment: Inhibition of wild-type human partial length HASPIN (I452 to K798 residues) expressed in mammalian expression system assessed as residual activity at 1 uM by Kinomescan method relative to control
[10] = molecular target: Interleukin-1 receptor-associated kinase 3 (Homo sapiens) (UniProt Q9Y616); experiment: Inhibition of wild-type human partial length IRAK3 (V147 to E596 residues) expressed in bacterial expression system assessed as residual activity at 1 uM by Kinomescan method relative to control
[11] = molecular target: Tyrosine-protein kinase JAK1 (Homo sapiens) (UniProt P23458); experiment: Inhibition of wild-type human partial length JAK1 JH1 catalytic domain (V856 to K1154 residues) expressed in bacterial expression system assessed as residual activity at 1 uM by Kinomescan method relative to control
[12] = molecular target: Mitogen-activated protein kinase kinase kinase 2 (Homo sapiens) (UniProt Q9Y2U5); experiment: Inhibition of wild-type human partial length MAP3K2 (S315 to H619 residues) expressed in mammalian expression system assessed as residual activity at 1 uM by Kinomescan method relative to control
[13] = molecular target: Dual specificity mitogen-activated protein kinase kinase 2 (Homo sapiens) (UniProt P36507); experiment: Inhibition of wild-type human full length MEK2 (M1 to V400 residues) expressed in mammalian expression system assessed as residual activity at 1 uM by Kinomescan method relative to control
[14] = molecular target: Muscle, skeletal receptor tyrosine-protein kinase (Homo sapiens) (UniProt O15146); experiment: Inhibition of wild-type human partial length MUSK (M553 to V869 residues) expressed in bacterial expression system assessed as residual activity at 1 uM by Kinomescan method relative to control
[15] = molecular target: Serine/threonine-protein kinase Nek5 (Homo sapiens) (UniProt Q6P3R8); experiment: Inhibition of wild-type human partial length NEK5 (M1 to M279 residues) expressed in bacterial expression system assessed as residual activity at 1 uM by Kinomescan method relative to control
[16] = molecular target: Serine/threonine-protein kinase NLK (Homo sapiens) (UniProt Q9UBE8); experiment: Inhibition of wild-type human full length NLK (M13 to E527 residues) expressed in bacterial expression system assessed as residual activity at 1 uM by Kinomescan method relative to control
[17] = molecular target: Phosphorylase b kinase gamma catalytic chain, liver/testis isoform (Homo sapiens) (UniProt P15735); experiment: Inhibition of wild-type human partial length PHKG2 (M1 to W300 residues) expressed in bacterial expression system assessed as residual activity at 1 uM by Kinomescan method relative to control
[18] = molecular target: Phosphatidylinositol 4,5-bisphosphate 3-kinase catalytic subunit delta isoform (Homo sapiens) (UniProt O00329); experiment: Inhibition of wild-type human partial length PIK3CD (R108 to Q1044 residues) expressed in mammalian expression system assessed as residual activity at 1 uM by Kinomescan method relative to control
[19] = molecular target: Serine/threonine-protein kinase N2 (Homo sapiens) (UniProt Q16513); experiment: Inhibition of wild-type human partial length PKN2 (E634 to C984 residues) expressed in bacterial expression system assessed as residual activity at 1 uM by Kinomescan method relative to control
[20] = molecular target: Serine/threonine-protein kinase PknB (Mycobacterium tuberculosis) (UniProt P9WI81); experiment: Inhibition of wild-type Mycobacterium tuberculosis H37Rv ATCC 25618 partial length PKNB (M1 to G279 residues) expressed in mammalian expression system assessed as residual activity at 1 uM by Kinomescan method relative to control
[21] = molecular target: Dual serine/threonine and tyrosine protein kinase (Homo sapiens) (UniProt Q6XUX3); experiment: Inhibition of wild-type human full length RIPK5 (M1 to T929 residues) expressed in mammalian expression system assessed as residual activity at 1 uM by Kinomescan method relative to control
[22] = molecular target: Ribosomal protein S6 kinase alpha-1 (Homo sapiens) (UniProt Q15418); experiment: Inhibition of wild-type human partial length N-terminal RSK1 Kinase domain 1 (M1 to E388 residues) expressed in bacterial expression system assessed as residual activity at 1 uM by Kinomescan method relative to control
[23] = molecular target: Serine/threonine-protein kinase Sgk3 (Homo sapiens) (UniProt Q96BR1); experiment: Inhibition of wild-type human partial length SGK3 (M119 to L496 residues) expressed in mammalian expression system assessed as residual activity at 1 uM by Kinomescan method relative to control
[24] = molecular target: Tyrosine-protein kinase Tec (Homo sapiens) (UniProt P42680); experiment: Inhibition of wild-type human partial length TEC (L341 to D620 residues) expressed in bacterial expression system assessed as residual activity at 1 uM by Kinomescan method relative to control
[25] = molecular target: High affinity nerve growth factor receptor (Homo sapiens) (UniProt P04629); experiment: Inhibition of wild-type human partial length TRKA (G475 to G790 residues) expressed in mammalian expression system assessed as residual activity at 1 uM by Kinomescan method relative to control
[26] = molecular target: Serine/threonine-protein kinase ULK1 (Homo sapiens) (UniProt O75385); experiment: Inhibition of wild-type human partial length ULK1 (M1 to T309 residues) expressed in mammalian expression system assessed as residual activity at 1 uM by Kinomescan method relative to control

Interleukin-1 receptor-associated kinase 3 (Homo sapiens), sequence (Q9Y616 whole entry, the tested form may be a part): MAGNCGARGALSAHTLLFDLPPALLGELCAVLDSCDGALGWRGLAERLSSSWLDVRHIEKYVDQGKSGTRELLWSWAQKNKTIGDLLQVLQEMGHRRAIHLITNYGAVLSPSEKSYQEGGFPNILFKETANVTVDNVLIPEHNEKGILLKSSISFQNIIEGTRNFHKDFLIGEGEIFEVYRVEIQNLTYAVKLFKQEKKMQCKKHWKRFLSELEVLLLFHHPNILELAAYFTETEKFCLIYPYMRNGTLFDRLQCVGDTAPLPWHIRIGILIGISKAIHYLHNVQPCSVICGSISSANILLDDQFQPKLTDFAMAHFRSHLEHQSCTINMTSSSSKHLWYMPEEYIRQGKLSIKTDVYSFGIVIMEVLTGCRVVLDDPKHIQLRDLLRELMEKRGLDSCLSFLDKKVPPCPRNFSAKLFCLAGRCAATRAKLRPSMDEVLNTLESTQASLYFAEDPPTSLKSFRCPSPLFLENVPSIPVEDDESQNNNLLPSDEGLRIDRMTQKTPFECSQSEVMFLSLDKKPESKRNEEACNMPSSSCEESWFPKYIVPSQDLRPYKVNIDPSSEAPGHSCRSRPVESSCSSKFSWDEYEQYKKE
Mitogen-activated protein kinase kinase kinase 2 (Homo sapiens), sequence (Q9Y2U5 whole entry, the tested form may be a part): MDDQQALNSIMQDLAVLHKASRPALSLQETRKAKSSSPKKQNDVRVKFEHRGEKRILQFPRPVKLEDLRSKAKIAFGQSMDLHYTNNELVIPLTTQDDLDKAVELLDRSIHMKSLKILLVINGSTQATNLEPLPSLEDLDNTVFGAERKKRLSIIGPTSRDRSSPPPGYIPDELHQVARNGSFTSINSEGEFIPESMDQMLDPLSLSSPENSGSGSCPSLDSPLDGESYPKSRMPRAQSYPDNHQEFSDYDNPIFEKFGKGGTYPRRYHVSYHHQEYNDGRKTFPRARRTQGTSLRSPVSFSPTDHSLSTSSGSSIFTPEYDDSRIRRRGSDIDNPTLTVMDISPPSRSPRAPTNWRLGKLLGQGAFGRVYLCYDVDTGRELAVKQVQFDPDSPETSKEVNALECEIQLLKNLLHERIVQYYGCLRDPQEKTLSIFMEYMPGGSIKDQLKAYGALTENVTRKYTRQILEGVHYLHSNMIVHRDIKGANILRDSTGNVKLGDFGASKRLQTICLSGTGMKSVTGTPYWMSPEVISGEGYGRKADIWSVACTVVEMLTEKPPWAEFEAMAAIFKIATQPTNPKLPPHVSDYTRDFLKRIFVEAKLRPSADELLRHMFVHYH
Serine/threonine-protein kinase NLK (Homo sapiens), sequence (Q9UBE8 whole entry, the tested form may be a part, canonical isoform): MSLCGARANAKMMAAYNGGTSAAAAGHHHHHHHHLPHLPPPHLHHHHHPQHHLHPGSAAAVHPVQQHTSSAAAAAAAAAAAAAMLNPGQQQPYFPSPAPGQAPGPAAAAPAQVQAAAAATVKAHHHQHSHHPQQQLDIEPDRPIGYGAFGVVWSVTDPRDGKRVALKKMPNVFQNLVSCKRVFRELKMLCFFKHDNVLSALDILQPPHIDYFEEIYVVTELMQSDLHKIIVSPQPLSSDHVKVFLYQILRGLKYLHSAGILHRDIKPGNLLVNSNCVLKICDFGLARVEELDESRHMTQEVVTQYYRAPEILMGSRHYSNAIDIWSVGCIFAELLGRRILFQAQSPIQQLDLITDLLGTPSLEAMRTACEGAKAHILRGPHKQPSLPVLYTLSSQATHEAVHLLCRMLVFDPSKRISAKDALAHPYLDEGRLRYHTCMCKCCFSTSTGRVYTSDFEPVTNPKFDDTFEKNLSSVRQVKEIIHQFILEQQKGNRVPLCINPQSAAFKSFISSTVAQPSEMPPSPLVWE
Phosphorylase b kinase gamma catalytic chain, liver/testis isoform (Homo sapiens), sequence (P15735 whole entry, the tested form may be a part, canonical isoform): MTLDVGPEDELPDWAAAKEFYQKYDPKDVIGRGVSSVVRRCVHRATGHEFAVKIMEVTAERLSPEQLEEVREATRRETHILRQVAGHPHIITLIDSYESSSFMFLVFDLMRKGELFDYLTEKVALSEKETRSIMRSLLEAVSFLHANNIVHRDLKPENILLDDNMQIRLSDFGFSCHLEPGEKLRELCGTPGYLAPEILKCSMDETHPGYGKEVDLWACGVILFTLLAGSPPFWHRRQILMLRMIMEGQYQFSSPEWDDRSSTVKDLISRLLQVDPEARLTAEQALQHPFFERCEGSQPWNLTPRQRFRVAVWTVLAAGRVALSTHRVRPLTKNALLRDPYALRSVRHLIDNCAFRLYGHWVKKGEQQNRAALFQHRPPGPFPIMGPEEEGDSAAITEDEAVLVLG
Tyrosine-protein kinase JAK1 (Homo sapiens), sequence (P23458 whole entry, the tested form may be a part): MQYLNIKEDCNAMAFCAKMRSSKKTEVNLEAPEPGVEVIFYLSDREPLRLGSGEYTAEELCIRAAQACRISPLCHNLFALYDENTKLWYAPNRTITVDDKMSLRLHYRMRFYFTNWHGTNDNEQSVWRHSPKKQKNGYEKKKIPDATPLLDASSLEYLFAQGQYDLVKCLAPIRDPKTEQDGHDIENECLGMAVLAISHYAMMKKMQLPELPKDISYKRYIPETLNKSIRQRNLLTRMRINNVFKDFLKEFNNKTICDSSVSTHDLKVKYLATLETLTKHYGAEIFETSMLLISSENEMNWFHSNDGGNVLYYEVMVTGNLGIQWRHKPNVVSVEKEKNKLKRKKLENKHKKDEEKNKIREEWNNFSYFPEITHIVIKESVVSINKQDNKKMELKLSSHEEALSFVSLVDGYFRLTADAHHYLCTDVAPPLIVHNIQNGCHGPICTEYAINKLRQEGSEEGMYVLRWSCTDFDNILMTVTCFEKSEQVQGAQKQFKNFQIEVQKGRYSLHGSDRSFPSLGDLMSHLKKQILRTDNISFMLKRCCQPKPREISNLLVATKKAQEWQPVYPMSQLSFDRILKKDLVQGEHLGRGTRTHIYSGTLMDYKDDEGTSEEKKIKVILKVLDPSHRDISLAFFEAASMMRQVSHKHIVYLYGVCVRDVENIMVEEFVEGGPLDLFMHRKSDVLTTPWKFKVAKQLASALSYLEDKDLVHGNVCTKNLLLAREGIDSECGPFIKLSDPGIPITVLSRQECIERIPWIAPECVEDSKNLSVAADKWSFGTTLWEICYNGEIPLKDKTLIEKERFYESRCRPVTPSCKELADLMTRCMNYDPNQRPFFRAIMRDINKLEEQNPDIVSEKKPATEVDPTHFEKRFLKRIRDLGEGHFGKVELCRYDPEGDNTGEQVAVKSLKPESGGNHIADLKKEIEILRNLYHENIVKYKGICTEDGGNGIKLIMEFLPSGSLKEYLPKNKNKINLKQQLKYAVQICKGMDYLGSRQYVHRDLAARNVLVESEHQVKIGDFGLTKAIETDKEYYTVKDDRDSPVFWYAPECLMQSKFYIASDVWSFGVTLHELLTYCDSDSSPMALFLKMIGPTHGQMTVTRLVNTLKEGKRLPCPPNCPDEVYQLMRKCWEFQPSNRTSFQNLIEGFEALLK
Serine/threonine-protein kinase Sgk3 (Homo sapiens), sequence (Q96BR1 whole entry, the tested form may be a part): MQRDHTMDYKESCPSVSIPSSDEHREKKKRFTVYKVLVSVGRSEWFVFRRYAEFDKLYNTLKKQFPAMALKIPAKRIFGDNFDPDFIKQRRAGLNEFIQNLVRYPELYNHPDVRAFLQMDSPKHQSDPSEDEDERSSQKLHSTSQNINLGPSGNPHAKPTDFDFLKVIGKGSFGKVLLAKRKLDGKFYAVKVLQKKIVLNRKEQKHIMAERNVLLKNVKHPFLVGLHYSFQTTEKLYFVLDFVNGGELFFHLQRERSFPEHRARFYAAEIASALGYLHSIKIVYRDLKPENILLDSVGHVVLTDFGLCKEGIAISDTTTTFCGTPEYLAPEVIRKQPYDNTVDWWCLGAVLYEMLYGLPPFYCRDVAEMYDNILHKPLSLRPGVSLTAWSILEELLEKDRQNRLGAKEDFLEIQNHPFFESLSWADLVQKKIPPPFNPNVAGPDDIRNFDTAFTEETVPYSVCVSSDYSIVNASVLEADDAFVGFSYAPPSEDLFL
Mitotic checkpoint serine/threonine-protein kinase BUB1 (Homo sapiens), sequence (O43683 whole entry, looked up, the tested form may be a part): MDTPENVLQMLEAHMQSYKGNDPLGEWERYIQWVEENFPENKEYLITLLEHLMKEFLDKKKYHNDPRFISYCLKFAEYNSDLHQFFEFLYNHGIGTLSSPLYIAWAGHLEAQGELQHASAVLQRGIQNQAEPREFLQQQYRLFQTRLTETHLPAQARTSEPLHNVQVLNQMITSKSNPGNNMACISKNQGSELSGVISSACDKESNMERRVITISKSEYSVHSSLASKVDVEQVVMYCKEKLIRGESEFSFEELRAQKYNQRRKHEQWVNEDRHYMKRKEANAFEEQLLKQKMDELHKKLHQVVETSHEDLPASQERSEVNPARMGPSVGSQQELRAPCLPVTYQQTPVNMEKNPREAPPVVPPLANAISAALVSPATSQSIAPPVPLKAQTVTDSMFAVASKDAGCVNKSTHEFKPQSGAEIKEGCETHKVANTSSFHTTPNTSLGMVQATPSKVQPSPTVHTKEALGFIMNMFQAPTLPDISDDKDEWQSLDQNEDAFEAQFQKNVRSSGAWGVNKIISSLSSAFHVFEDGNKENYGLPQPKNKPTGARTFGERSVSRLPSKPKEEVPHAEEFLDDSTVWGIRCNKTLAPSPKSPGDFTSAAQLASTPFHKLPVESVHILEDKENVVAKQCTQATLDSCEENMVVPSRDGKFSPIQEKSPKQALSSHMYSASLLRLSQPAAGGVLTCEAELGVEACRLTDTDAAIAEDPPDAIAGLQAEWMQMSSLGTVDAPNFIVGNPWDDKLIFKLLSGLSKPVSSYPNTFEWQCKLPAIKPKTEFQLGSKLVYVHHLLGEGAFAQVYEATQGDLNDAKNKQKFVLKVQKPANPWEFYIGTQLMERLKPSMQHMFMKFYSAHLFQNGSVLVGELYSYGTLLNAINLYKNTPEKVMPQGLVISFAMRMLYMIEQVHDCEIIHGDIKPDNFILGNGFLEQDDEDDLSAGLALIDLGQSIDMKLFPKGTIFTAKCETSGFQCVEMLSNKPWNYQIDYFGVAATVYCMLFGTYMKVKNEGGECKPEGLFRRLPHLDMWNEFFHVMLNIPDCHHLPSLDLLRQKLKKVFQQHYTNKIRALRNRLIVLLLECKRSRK

In the case of C=CC(=O)Nc1cc(Nc2cc(-c3cccc(NC(=O)c4ccc(C(C)(C)C)cc4)c3C)cn(C)c2=O)ccc1C(=O)N1CCOCC1, the MRT last [1] is reported as 81.6 min, the Tmax [2] is reported as 1.02 min and the Activity [3] is reported as 100%. It also gave an Activity [4] of 100%, an Activity [5] of 100% and an Activity [6] of 100%. The Activity [7] was 99%, the Activity [8] was 84% and the Activity [9] was 54%. For the same molecule, the Activity [10] was 96%, the Activity [11] was 100% and the Activity [12] was 89%. It also gave an Activity [13] of 100%, an Activity [14] of 91% and an Activity [15] of 100%. It also gave an Activity [16] of 63%, an Activity [17] of 100% and an Activity [18] of 100%. The Activity [19] was 93%, the Activity [20] was 100% and the Activity [21] was 90%. The Activity [22] was 87%, the Activity [23] was 81% and the Activity [24] was 95%. For the same molecule, the Activity [25] was 91% and the Activity [26] was 100%.
